Test results as given in ChEMBL document CHEMBL1147717, “Development of activity-based probes for trypsin-family serine proteases” (Bioorg Med Chem Lett, 2006).

Experiments:
Tryptase beta-1 = Tryptase beta-1 (Homo sapiens, UniProt Q15661); assay: Inhibition of beta tryptase; conditions: read-out: Ki app
Trypsin = Trypsin (Homo sapiens, UniProt P07477+P07478+P35030); assay: Inhibition of trypsin; assay type: protein assay
Prothrombin = Prothrombin (Homo sapiens, UniProt P00734); assay: Inhibition of thrombin; conditions: read-out: Ki app
Plasminogen = Plasminogen (Homo sapiens, UniProt P00747); assay: Inhibition of plasmin; conditions: read-out: Ki app
Plasminogen, sequence (P00747 97-580 limits assumed): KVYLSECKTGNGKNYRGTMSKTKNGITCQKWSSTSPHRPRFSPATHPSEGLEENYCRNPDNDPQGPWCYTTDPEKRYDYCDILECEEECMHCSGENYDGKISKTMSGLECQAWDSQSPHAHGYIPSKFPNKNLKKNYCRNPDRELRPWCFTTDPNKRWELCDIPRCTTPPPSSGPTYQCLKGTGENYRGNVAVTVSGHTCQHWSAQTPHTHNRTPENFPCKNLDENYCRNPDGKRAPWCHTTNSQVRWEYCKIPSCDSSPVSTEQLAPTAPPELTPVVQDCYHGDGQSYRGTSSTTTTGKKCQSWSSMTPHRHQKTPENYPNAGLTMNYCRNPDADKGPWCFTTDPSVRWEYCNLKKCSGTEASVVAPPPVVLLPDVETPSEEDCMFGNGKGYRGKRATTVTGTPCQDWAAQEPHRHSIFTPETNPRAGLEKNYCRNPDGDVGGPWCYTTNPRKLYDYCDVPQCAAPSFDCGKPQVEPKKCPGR
Plasminogen, sequence (P00747 581-810 limits assumed): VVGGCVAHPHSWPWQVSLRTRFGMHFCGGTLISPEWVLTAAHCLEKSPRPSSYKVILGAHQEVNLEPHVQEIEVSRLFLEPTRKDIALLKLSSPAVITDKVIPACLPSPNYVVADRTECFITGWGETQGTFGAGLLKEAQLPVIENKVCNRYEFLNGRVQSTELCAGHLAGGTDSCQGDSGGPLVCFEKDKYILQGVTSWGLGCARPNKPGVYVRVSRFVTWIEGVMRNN

Tryptase beta-1, sequence (Q15661 whole entry): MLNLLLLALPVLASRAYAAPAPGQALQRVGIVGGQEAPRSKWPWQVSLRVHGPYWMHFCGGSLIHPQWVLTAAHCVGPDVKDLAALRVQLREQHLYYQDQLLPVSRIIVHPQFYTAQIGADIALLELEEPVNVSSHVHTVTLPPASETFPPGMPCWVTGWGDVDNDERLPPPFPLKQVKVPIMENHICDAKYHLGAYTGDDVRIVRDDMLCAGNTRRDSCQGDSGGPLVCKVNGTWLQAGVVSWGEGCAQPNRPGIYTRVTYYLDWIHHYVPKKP

Compound `NCCCC[C@@H](NC(=O)[C@@H]1CCCN1C(=O)CCOCCOCCOCCOCCNC(=O)CCCC[C@@H]1SC[C@@H]2NC(=O)N[C@@H]21)P(=O)(Oc1ccccc1)Oc1ccccc1` has a Ki (Tryptase beta-1) of 6200 nM, a Ki app (Trypsin) of 570 nM and a Ki (Prothrombin) of 1070 nM. The Ki (Plasminogen) was 2900 nM.

`NCCCC[C@@H](NC(=O)[C@H](CC(N)=O)NC(=O)CCOCCOCCOCCOCCNC(=O)CCCC[C@@H]1SC[C@@H]2NC(=O)N[C@@H]21)P(=O)(Oc1ccccc1)Oc1ccccc1` showed a Ki (Tryptase beta-1) of 2500 nM, a Ki app (Trypsin) of 57300 nM and a Ki (Prothrombin) of over 100000 nM. It also gave a Ki (Plasminogen) of 4030 nM.
